# Results from ChEMBL document CHEMBL1649268, “Comparative in vitro activity profile of oritavancin against recent gram-positive clinical isolates” (2009).
# Assays:
# Enterococcus faecium [1] = test: Antimicrobial activity against vancomycin-nonsusceptible Enterococcus faecium clinical isolates by broth microdilution method; format: functional
# Streptococcus pneumoniae [2] = test: Antimicrobial activity against penicillin-resistant Streptococcus pneumoniae clinical isolates by broth microdilution method; format: functional
# Streptococcus pyogenes [3] = test: Antimicrobial activity against erythromycin-nonsusceptible Streptococcus pyogenes clinical isolates assessed as percent susceptible isolates by broth microdilution method; format: functional
# Streptococcus pyogenes [4] = test: Antimicrobial activity against Streptococcus pyogenes clinical isolates by broth microdilution method; format: functional
# Streptococcus pyogenes [5] = test: Antimicrobial activity against erythromycin-susceptible Streptococcus pyogenes clinical isolates assessed as percent susceptible isolates by broth microdilution method; format: functional
# Staphylococcus aureus [6] = test: Antimicrobial activity against Staphylococcus aureus clinical isolates assessed as resistant isolates by broth microdilution method; format: functional
# Streptococcus pneumoniae [7] = test: Antimicrobial activity against Streptococcus pneumoniae clinical isolates assessed as percent susceptible isolates by broth microdilution method; format: functional
# [8] = Antimicrobial activity against erythromycin-susceptible Streptococcus Group C clinical isolates assessed as percent susceptible isolates by broth microdilution method; format: functional, Streptococcus sp. 'group C'
# Enterococcus faecium [9] = test: Antimicrobial activity against vancomycin-nonsusceptible Enterococcus faecium clinical isolates assessed as percent susceptible isolates by broth microdilution method; format: functional
# [10] = test system: Staphylococcus epidermidis; test: Antimicrobial activity against oxacillin-susceptible Staphylococcus epidermidis clinical isolates by broth microdilution method; format: functional
# [11] = Antimicrobial activity against erythromycin-susceptible Streptococcus Group C clinical isolates by broth microdilution method; format: functional; conditions: Streptococcus sp. 'group C'
# [12] = Antimicrobial activity against erythromycin-susceptible Streptococcus Group G clinical isolates by broth microdilution method; format: functional; conditions: Streptococcus sp. 'group G'
# [13] = test system: Staphylococcus epidermidis; test: Antimicrobial activity against Staphylococcus epidermidis clinical isolates assessed as resistant isolates by broth microdilution method; format: functional
# Enterococcus faecalis [14] = test: Antimicrobial activity against Enterococcus faecalis expressing VanA gene clinical isolates by broth microdilution method; format: functional
# [15] = test system: Staphylococcus haemolyticus; test: Antimicrobial activity against oxacillin-resistant Staphylococcus haemolyticus clinical isolates assessed as resistant isolates by broth microdilution method; format: functional
# Streptococcus pneumoniae [16] = test: Antimicrobial activity against penicillin-intermediate Streptococcus pneumoniae clinical isolates by broth microdilution method; format: functional
# Streptococcus agalactiae [17] = test: Antimicrobial activity against erythromycin-susceptible Streptococcus agalactiae clinical isolates by broth microdilution method; format: functional
# Streptococcus agalactiae [18] = test: Antimicrobial activity against erythromycin-susceptible Streptococcus agalactiae clinical isolates assessed as percent susceptible isolates by broth microdilution method; format: functional
# [19] = test system: Staphylococcus epidermidis; test: Antimicrobial activity against oxacillin-resistant Staphylococcus epidermidis clinical isolates assessed as percent susceptible isolates by broth microdilution method; format: functional
# Streptococcus pyogenes [20] = test: Antimicrobial activity against Streptococcus pyogenes clinical isolates assessed as percent susceptible isolates by broth microdilution method; format: functional
# Streptococcus [21] = test: Antimicrobial activity against erythromycin-nonsusceptible Streptococcus Group F clinical isolates by broth microdilution method; format: functional
# Streptococcus agalactiae [22] = test: Antimicrobial activity against erythromycin-nonsusceptible Streptococcus agalactiae clinical isolates assessed as percent susceptible isolates by broth microdilution method; format: functional
# [23] = Antimicrobial activity against Streptococcus Group C clinical isolates assessed as percent susceptible isolates by broth microdilution method; format: functional, Streptococcus sp. 'group C'
# [24] = Antimicrobial activity against Streptococcus Group C clinical isolates by broth microdilution method; format: functional; conditions: Streptococcus sp. 'group C'
# Streptococcus agalactiae [25] = test: Antimicrobial activity against erythromycin-nonsusceptible Streptococcus agalactiae clinical isolates assessed as resistant isolates by broth microdilution method; format: functional
# Streptococcus agalactiae [26] = test: Antimicrobial activity against Streptococcus agalactiae clinical isolates assessed as percent susceptible isolates by broth microdilution method; format: functional
# Streptococcus agalactiae [27] = test: Antimicrobial activity against Streptococcus agalactiae clinical isolates by broth microdilution method; format: functional
# Streptococcus agalactiae [28] = test: Antimicrobial activity against erythromycin-susceptible Streptococcus agalactiae clinical isolates assessed as resistant isolates by broth microdilution method; format: functional
# Streptococcus pneumoniae [29] = test: Antimicrobial activity against penicillin-susceptible Streptococcus pneumoniae clinical isolates assessed as percent susceptible isolates by broth microdilution method; format: functional
# [30] = test system: Staphylococcus epidermidis; test: Antimicrobial activity against oxacillin-susceptible Staphylococcus epidermidis clinical isolates assessed as resistant isolates by broth microdilution method; format: functional
# Streptococcus pyogenes [31] = test: Antimicrobial activity against erythromycin-susceptible Streptococcus pyogenes clinical isolates by broth microdilution method; format: functional
# Enterococcus faecalis [32] = test: Antimicrobial activity against Enterococcus faecalis expressing VanA gene clinical isolates assessed as percent susceptible isolates by broth microdilution method; format: functional
# Streptococcus pneumoniae [33] = test: Antimicrobial activity against penicillin-intermediate Streptococcus pneumoniae clinical isolates assessed as percent susceptible isolates by broth microdilution method; format: functional
# Enterococcus faecium [34] = test: Antimicrobial activity against Enterococcus faecium expressing VanA gene clinical isolates by broth microdilution method; format: functional
# Streptococcus [35] = test: Antimicrobial activity against Streptococcus Group F clinical isolates by broth microdilution method; format: functional
# Staphylococcus aureus [36] = test: Antimicrobial activity against oxacillin-susceptible Staphylococcus aureus clinical isolates by broth microdilution method; format: functional
# Streptococcus pneumoniae [37] = test: Antimicrobial activity against penicillin-susceptible Streptococcus pneumoniae clinical isolates by broth microdilution method; format: functional
# Streptococcus agalactiae [38] = test: Antimicrobial activity against Streptococcus agalactiae clinical isolates assessed as resistant isolates by broth microdilution method; format: functional
# Streptococcus pneumoniae [39] = test: Antimicrobial activity against penicillin-resistant Streptococcus pneumoniae clinical isolates assessed as percent susceptible isolates by broth microdilution method; format: functional
# Streptococcus agalactiae [40] = test: Antimicrobial activity against erythromycin-nonsusceptible Streptococcus agalactiae clinical isolates by broth microdilution method; format: functional
# [41] = test system: Staphylococcus haemolyticus; test: Antimicrobial activity against Staphylococcus haemolyticus clinical isolates by broth microdilution method; format: functional
# Streptococcus pyogenes [42] = test: Antimicrobial activity against erythromycin-nonsusceptible Streptococcus pyogenes clinical isolates by broth microdilution method; format: functional
# Enterococcus faecalis [43] = test: Antimicrobial activity against Enterococcus faecalis expressing VanB gene clinical isolates assessed as percent susceptible isolates by broth microdilution method; format: functional
# [44] = test system: Staphylococcus haemolyticus; test: Antimicrobial activity against oxacillin-resistant Staphylococcus haemolyticus clinical isolates by broth microdilution method; format: functional
# [45] = Antimicrobial activity against erythromycin-susceptible Streptococcus Group G clinical isolates assessed as percent susceptible isolates by broth microdilution method; format: functional, Streptococcus sp. 'group G'
# [46] = Antimicrobial activity against erythromycin-nonsusceptible Streptococcus Group C clinical isolates by broth microdilution method; format: functional; conditions: Streptococcus sp. 'group C'
# Streptococcus [47] = test: Antimicrobial activity against erythromycin-susceptible Streptococcus Group F clinical isolates by broth microdilution method; format: functional
# [48] = test system: Staphylococcus epidermidis; test: Antimicrobial activity against Staphylococcus epidermidis clinical isolates assessed as percent susceptible isolates by broth microdilution method; format: functional
# [49] = Antimicrobial activity against erythromycin-nonsusceptible Streptococcus Group G clinical isolates by broth microdilution method; format: functional; conditions: Streptococcus sp. 'group G'
# Staphylococcus aureus [50] = test: Antimicrobial activity against oxacillin-resistant Staphylococcus aureus clinical isolates assessed as resistant isolates by broth microdilution method; format: functional
# [51] = Antimicrobial activity against Streptococcus Group G clinical isolates by broth microdilution method; format: functional; conditions: Streptococcus sp. 'group G'
# Streptococcus pneumoniae [52] = test: Antimicrobial activity against Streptococcus pneumoniae clinical isolates by broth microdilution method; format: functional
structure (smiles),measurement,setting,value
CN[C@H](CC(C)C)C(=O)N[C@H]1C(=O)N[C@@H](CC(N)=O)C(=O)N[C@H]2C(=O)N[C@H]3C(=O)N[C@H](C(=O)N[C@H](C(=O)O)c4cc(O)cc(O)c4-c4cc3ccc4O)[C@H](O)c3ccc(c(Cl)c3)Oc3cc2cc(c3O[C@@H]2O[C@H](CO)[C@@H](O)[C@H](O)[C@H]2O[C@H]2C[C@](C)(N)[C@H](O)[C@H](C)O2)Oc2ccc(cc2Cl)[C@H]1O [VANCOMYCIN],MIC90,Enterococcus faecium [1],> 256 µg/mL
same,MIC90,Streptococcus pneumoniae [2],0.5 µg/mL
same,Activity,Streptococcus pyogenes [3],100%
same,MIC90,Streptococcus pyogenes [4],0.25 µg/mL
same,Activity,Streptococcus pyogenes [5],100%
same,Percent resistant isolates,Staphylococcus aureus [6],0%
same,Activity,Streptococcus pneumoniae [7],100%
same,Activity,[8],100%
same,Activity,Enterococcus faecium [9],0%
same,MIC90,[10],2 µg/mL
same,MIC90,[11],0.5 µg/mL
same,MIC90,[12],0.5 µg/mL
same,Percent of isolates resistant,[13],0%
same,MIC90,Enterococcus faecalis [14],> 256 µg/mL
same,Activity,[15],0%
same,MIC90,Streptococcus pneumoniae [16],0.25 µg/mL
same,MIC90,Streptococcus agalactiae [17],0.5 µg/mL
same,Activity,Streptococcus agalactiae [18],100%
same,Activity,[19],100%
same,Activity,Streptococcus pyogenes [20],100%
same,MIC90,Streptococcus [21],0.5 µg/mL
same,Activity,Streptococcus agalactiae [22],100%
same,Activity,[23],100%
same,MIC90,[24],0.5 µg/mL
same,Activity,Streptococcus agalactiae [25],0%
same,Activity,Streptococcus agalactiae [26],100%
same,MIC90,Streptococcus agalactiae [27],0.5 µg/mL
same,Activity,Streptococcus agalactiae [28],0%
same,Activity,Streptococcus pneumoniae [29],100%
same,Percent of isolates resistant,[30],0%
same,MIC90,Streptococcus pyogenes [31],0.25 µg/mL
same,Activity,Enterococcus faecalis [32],0%
same,Activity,Streptococcus pneumoniae [33],100%
same,MIC90,Enterococcus faecium [34],> 256 µg/mL
same,MIC90,Streptococcus [35],0.5 µg/mL
same,MIC90,Staphylococcus aureus [36],1 µg/mL
same,MIC90,Streptococcus pneumoniae [37],0.25 µg/mL
same,Activity,Streptococcus agalactiae [38],0%
same,Activity,Streptococcus pneumoniae [39],100%
same,MIC90,Streptococcus agalactiae [40],0.5 µg/mL
same,MIC90,[41],2 µg/mL
same,MIC90,Streptococcus pyogenes [42],0.25 µg/mL
same,Activity,Enterococcus faecalis [43],0%
same,MIC90,[44],2 µg/mL
same,Activity,[45],100%
same,MIC90,[46],0.5 µg/mL
same,MIC90,Streptococcus [47],0.5 µg/mL
same,Activity,[48],100%
same,MIC90,[49],0.5 µg/mL
same,Percent resistant isolates,Staphylococcus aureus [50],0%
same,MIC90,[51],0.5 µg/mL
same,MIC90,Streptococcus pneumoniae [52],0.25 µg/mL
